Reference: patent US9187658B2, “Photopolymerizable inkjet ink, ink cartridge, and inkjet recording device” (Ricoh Company, Ltd., priority 2013, dated 2015)
Where two headings read alike, the source gives them in different places.

How the values were obtained:
female mice [1] = test: Skin sensitization test, local lymph node assay (LLNA, OECD test guideline 429), BrdU intake by ELISA; details: test substance 50.0 w/v % in acetone/olive oil 4:1, 25 μL/auricle once a day for 3 days
Protocol: (§1) According to the skin sensitization test of local lymph node assay (LLNA) specified in OECD test guideline 429, the SI value was measured in the following manner.
(§2) Before treated with the test substances, the positive control or the vehicle control, female mice were acclimated for 8 days including 6-day quarantine. No abnormalities were found in all the mice (used animals) during the quarantine/acclimation period. Based on the body weights measured 2 days before the initiation of sensitization, they were categorized into 2 groups (4 mice/group) by the body weight stratified random sampling method so that the body weight of each individual was within ±20% of the average body weight of all the individuals. Each of the used animals was 8 weeks old to 9 weeks old at the time of the initiation of sensitization. […]
(§3) About 24 hours after the administration of BrdU, the used animals were allowed to undergo euthanasia, and their auricular lymph nodes were sampled. […] Also, the average of the weights of the auricular lymph nodes and the standard error thereof were calculated for each group. […]
(§4) After returning the auricular lymph nodes to room temperature, the auricular lymph nodes were mashed with the gradual addition of physiological saline, and suspended therein. […] The thus-dispensed suspensions were measured for intake of BrdU by the ELISA method. […]

skin sensitization [2] = details: cited from earlier work
skin sensitization [3] = details: vinyl ethers stated as negative; basis not given; cited from earlier work
female mice [4] = details: mouse, in vivo
Protocol: as §1, §2, §3, §4

In the case of `C=C(C)C(=O)OCCOCCOC(=O)C(=C)C` [Compound 2G, Diethylene glycol dimethacrylate], the “SI value (Stimulation Index)” value (female mice [1]) is reported as 1.1.

For `O=C(c1ccccc1)C1(O)CCCCC1` [Irgacure 184, 1-hydroxycyclohexylphenyl ketone], the “Skin sensitization evaluated in MSDS” value (skin sensitization [2]) is listed as “no”.

For `Cc1cc(C)c(C(=O)P(=O)(C(=O)c2c(C)cc(C)cc2C)c2ccccc2)c(C)c1` [Irgacure 819, Bis(2,4,6-trimethylbenzoyl)-phenylphosphone oxide], the “Skin sensitization evaluated in MSDS” value (skin sensitization [2]; MSDS) is listed as “yes”.

For `C=COCC` [ethyl vinyl ether], the Skin sensitization (skin sensitization [3]) is given as “negative for skin sensitization”.

For `C=COCCCCO` [hydroxybutyl vinyl ether], the Skin sensitization (skin sensitization [3]) is given as “negative for skin sensitization”.

In the case of `C=COCCOCCOCCOC=C` [triethylene glycol divinyl ether], the Skin sensitization (skin sensitization [3]) is listed as “negative for skin sensitization”.

In the case of “Caprolactone-modified dipentaerythritol hexaacrylate [DPCA60]”, the “SI value (Stimulation Index)” value (female mice [4]) is reported as 1.0.
